Laboratory results as given in patent US9974800B2 (priority 2014, dated 2018).

Tested on: Ebola virus
Type: cell-based
Details: alone

With `CC[C@H]1OC(=O)[C@H](C)[C@@H](O[C@H]2C[C@@](C)(OC)[C@@H](O)[C@H](C)O2)[C@H](C)[C@@H](O[C@@H]2O[C@H](C)C[C@H](N(C)C)[C@H]2O)[C@](C)(OC)C[C@@H](C)C(=O)[C@H](C)[C@@H](O)[C@]1(C)O` [Clarithromycin] the “inhibit EBOV infection in primary macrophages” value was “can inhibit EBOV infection”.
